From PubChem BioAssay AID1963970 (Molecular Pharmacology Branch, DTP, NCI, 2024)
pIC50: −log10 of the molar value.

System: 931267-113-T-J1-PDC multicell spheroid viability
Test: Anticancer human tumor 931267-113-T-J1-PDC patient-derived colon adenocarcinoma cell line growth inhibition [PI3K]
Details: for pIC50: curve of first compound; for viability, T/C: stronger effect = lower value
Method in brief: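 Spheroid viability read-out. Co-cultures contained the tumor line plus HUVEC and human MSCs. Each agent was paired with a PI3K inhibitor (inavolisib, alpelisib, duvelisib, copanlisib) across half-log dilutions starting at clinical Cmax, or at 10 microM when Cmax was unknown.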

[1] = second compound 0.00316 µM, first compound 0.0316 µM
[2] = second compound 0.00316 µM, first compound 0.1 µM
[3] = second compound 0.00316 µM, first compound 0.316 µM
[4] = second compound 0.00316 µM, first compound 1 µM
[5] = second compound 0.00316 µM, first compound 3.16 µM
[6] = second compound 0.00316 µM, first compound 10 µM
[7] = second compound 0.01 µM, first compound 0.0316 µM
[8] = second compound 0.01 µM, first compound 0.1 µM
[9] = second compound 0.01 µM, first compound 0.316 µM
[10] = second compound 0.01 µM, first compound 1 µM
[11] = second compound 0.01 µM, first compound 3.16 µM
[12] = second compound 0.01 µM, first compound 10 µM
[13] = second compound 0.0316 µM, first compound 0.0316 µM
[14] = second compound 0.0316 µM, first compound 0.1 µM
[15] = second compound 0.0316 µM, first compound 0.316 µM
[16] = second compound 0.0316 µM, first compound 1 µM
[17] = second compound 0.0316 µM, first compound 3.16 µM
[18] = second compound 0.0316 µM, first compound 10 µM
[19] = second compound 0.1 µM, first compound 0.0316 µM
[20] = second compound 0.1 µM, first compound 0.1 µM
[21] = second compound 0.1 µM, first compound 0.316 µM
[22] = second compound 0.1 µM, first compound 1 µM
[23] = second compound 0.1 µM, first compound 3.16 µM
[24] = second compound 0.1 µM, first compound 10 µM
[25] = second compound 0.316 µM, first compound 0.0316 µM
[26] = second compound 0.316 µM, first compound 0.1 µM
[27] = second compound 0.316 µM, first compound 0.316 µM
[28] = second compound 0.316 µM, first compound 1 µM
[29] = second compound 0.316 µM, first compound 3.16 µM
[30] = second compound 0.316 µM, first compound 10 µM
[31] = second compound 1 µM, first compound 0.0316 µM
[32] = second compound 1 µM, first compound 0.1 µM
[33] = second compound 1 µM, first compound 0.316 µM
[34] = second compound 1 µM, first compound 1 µM
[35] = second compound 1 µM, first compound 3.16 µM
[36] = second compound 1 µM, first compound 10 µM
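Further: viability read 7 days after compound addition.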

## Cn1ncc(Cl)c1-c1cc(C(=O)NC(CN)Cc2cccc(F)c2)sc1Cl (centres undefined) + COc1c(OCCCN2CCOCC2)ccc2c3n(c(=NC(=O)c4cnc(N)nc4)nc12)CCN3
Second compound 0.00316 µM
  pIC50: 5.23
Second compound 0.01 µM
  pIC50: 5.24
Second compound 0.0316 µM
  pIC50: 5.31
Second compound 0.1 µM
  pIC50: 5.44
Second compound 0.316 µM
  pIC50: > 7.50
Second compound 1 µM
  pIC50: > 7.50
[1]
  viability, T/C: 95.1%
[2]
  viability, T/C: 102%
[3]
  viability, T/C: 89.5%
[4]
  viability, T/C: 81.8%
[5]
  viability, T/C: 75.9%
[6]
  viability, T/C: 30.8%
[7]
  viability, T/C: 109%
[8]
  viability, T/C: 95.4%
[9]
  viability, T/C: 87.4%
[10]
  viability, T/C: 76%
[11]
  viability, T/C: 69.6%
[12]
  viability, T/C: 35.6%
[13]
  viability, T/C: 90%
[14]
  viability, T/C: 93.2%
[15]
  viability, T/C: 82.4%
[16]
  viability, T/C: 75.3%
[17]
  viability, T/C: 60.2%
[18]
  viability, T/C: 34%
[19]
  viability, T/C: 71.1%
[20]
  viability, T/C: 70.3%
[21]
  viability, T/C: 70.1%
[22]
  viability, T/C: 60%
[23]
  viability, T/C: 54.3%
[24]
  viability, T/C: 32.2%
[25]
  viability, T/C: 47.9%
[26]
  viability, T/C: 50.4%
[27]
  viability, T/C: 45.2%
[28]
  viability, T/C: 47.3%
[29]
  viability, T/C: 47.5%
[30]
  viability, T/C: 22.1%
[31]
  viability, T/C: 34.7%
[32]
  viability, T/C: 35.6%
[33]
  viability, T/C: 35.5%
[34]
  viability, T/C: 33.9%
[35]
  viability, T/C: 34.8%
[36]
  viability, T/C: 20%

## Cn1nccc1Nc1nccc(-c2ccn(C(CO)c3ccc(Cl)c(F)c3)c(=O)c2)n1 (centres undefined) + COc1c(OCCCN2CCOCC2)ccc2c3n(c(=NC(=O)c4cnc(N)nc4)nc12)CCN3
Second compound 0.00316 µM
  pIC50: 5.42
Second compound 0.01 µM
  pIC50: 5.56
Second compound 0.0316 µM
  pIC50: 5.91
Second compound 0.1 µM
  pIC50: 6.38
Second compound 0.316 µM
  pIC50: > 7.50
Second compound 1 µM
  pIC50: > 7.50
[1]
  viability, T/C: 94.7%
[2]
  viability, T/C: 82.3%
[3]
  viability, T/C: 83.2%
[4]
  viability, T/C: 77.4%
[5]
  viability, T/C: 52.2%
[6]
  viability, T/C: 32.1%
[7]
  viability, T/C: 97.6%
[8]
  viability, T/C: 98%
[9]
  viability, T/C: 79.2%
[10]
  viability, T/C: 67.5%
[11]
  viability, T/C: 48.5%
[12]
  viability, T/C: 22.4%
[13]
  viability, T/C: 79.7%
[14]
  viability, T/C: 77%
[15]
  viability, T/C: 68%
[16]
  viability, T/C: 55.6%
[17]
  viability, T/C: 30.6%
[18]
  viability, T/C: 16.1%
[19]
  viability, T/C: 70%
[20]
  viability, T/C: 67.4%
[21]
  viability, T/C: 52.4%
[22]
  viability, T/C: 37.4%
[23]
  viability, T/C: 21.9%
[24]
  viability, T/C: 10.3%
[25]
  viability, T/C: 42.7%
[26]
  viability, T/C: 40.2%
[27]
  viability, T/C: 35%
[28]
  viability, T/C: 23.7%
[29]
  viability, T/C: 13.8%
[30]
  viability, T/C: 6.64%
[31]
  viability, T/C: 32.7%
[32]
  viability, T/C: 29.6%
[33]
  viability, T/C: 27.3%
[34]
  viability, T/C: 18.4%
[35]
  viability, T/C: 9.42%
[36]
  viability, T/C: 5.13%
